Laboratory results published in patent US10703757B2, “Compounds and methods for CDK8 modulation and indications therefor” (Plexxikon Inc., priority 2016, dated 2020).

Experiments:
[1] = tested on: CDK8 (phosphorylation of STAT1 at serine 727 in A549 cells); experiment: Cell based Phospho-STAT1 assay (IFNγ-stimulated A549 cells, AlphaLISA); conditions: Homo sapiens, A549, A549 cells, phospho-STAT1 after IFNγ stimulation
Procedure, shortened: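 A549 cells given serial compound dilutions for 1 h at 37 °C, then stimulated with IFNγ at 10 ng/mL final for 30 min. Lysate STAT1 Ser727 phosphorylation measured by AlphaLISA; % inhibition vs stimulated/unstimulated DMSO controls, IC50 by nonlinear regression.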

[2] = tested on: CDK8 (TCF/LEF luciferase reporter in HCT116 cells); experiment: Cell based TCF/LEF reporter assay (HCT116+TCF/LEF luciferase); conditions: Homo sapiens, HCT-116, 24 h
Procedure, shortened: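 HCT116 cells stably carrying a TCF/LEF-luciferase reporter (endogenous mutant β-catenin), seeded overnight, then exposed to serial compound dilutions for 24 h at 37 °C. Luminescence normalized to CellTiter-Fluor viability signal. % inhibition relative to DMSO and 10 uM CCT251545 controls, with IC50 from nonlinear regression.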

Row | IC50 [1] | IC50 [2] | SMILES
1 | 0.1 to 100 nM | 100 to 1000 nM | N#CC1CCC(c2nccn3ncc(-c4ccc5c(cnn5C5CCCCO5)c4)c23)CC1 (stereo not shown) [Compound P-0109, 4-(3-(1-(tetrahydro-2H-pyran-2-yl)-1H-indazol-5-yl)pyrazolo[1,5-a]pyrazin-4-yl)cyclohexane-1-carbonitrile]
2 | 0.1 to 100 nM | 0.1 to 100 nM | CC(C)(O)Cn1cc(-c2ccc(-c3cnn4ccnc(C#CC(C)(C)C(N)=O)c34)cc2)cn1 [Compound P-0110, 4-(3-(4-(1-(2-hydroxy-2-methylpropyl)-1H-pyrazol-4-yl)phenyl)pyrazolo[1,5-a]pyrazin-4-yl)-2,2-dimethylbut-3-ynamide]
3 | 0.1 to 100 nM | 0.1 to 100 nM | CC(C)(O)Cn1ncc2cc(-c3cnn4ccnc(C5=CCC(C#N)CC5)c34)ccc21 (stereo not shown) [Compound P-0111, 4-(3-(1-(2-hydroxy-2-methylpropyl)-1H-indazol-5-yl)pyrazolo[1,5-a]pyrazin-4-yl)cyclohex-3-ene-1-carbonitrile]
4 | 0.1 to 100 nM | 100 to 1000 nM | CC(C)(O)Cn1cc2cc(-c3cnc4[nH]ccc4c3C3=CCC(C#N)CC3)ccc2n1 (stereo not shown) [Compound P-0112, 4-(5-(2-(2-hydroxy-2-methylpropyl)-2H-indazol-5-yl)-1H-pyrrolo[2,3-b]pyridin-4-yl)cyclohex-3-ene-1-carbonitrile]
5 | 0.1 to 100 nM | 0.1 to 100 nM | CC(C)(O)Cn1ncc2cc(-c3cnc4[nH]ccc4c3C3=CCC(C#N)CC3)ccc21 (stereo not shown) [Compound P-0113]
6 | 0.1 to 100 nM | 0.1 to 100 nM | N#CC1CC=C(c2nccn3ncc(-c4ccc5c(cnn5C(F)F)c4)c23)CC1 (stereo not shown) [Compound P-0114, 4-(3-(1-(difluoromethyl)-1H-indazol-5-yl)pyrazolo[1,5-a]pyrazin-4-yl)cyclohex-3-ene-1-carbonitrile]
7 | 0.1 to 100 nM | 0.1 to 100 nM | CC(C)(C#Cc1nccn2ncc(-c3ccc4cc(NS(C)(=O)=O)ccc4c3)c12)C(N)=O [Compound P-0115, 2,2-dimethyl-4-(3-(6-(methylsulfonamido)naphthalen-2-yl)pyrazolo[1,5-a]pyrazin-4-yl)but-3-ynamide]
8 | 100 to 1000 nM | 100 to 1000 nM | N#CC1CC=C(c2nccn3ncc(-c4ccc(-c5cnn(CC(=O)O)c5)c(F)c4)c23)CC1 (stereo not shown) [Compound P-0116, 2-(4-(4-(4-(4-cyanocyclohex-1-en-1-yl)pyrazolo[1,5-a]pyrazin-3-yl)-2-fluorophenyl)-1H-pyrazol-1-yl)acetic acid]
9 | 0.1 to 100 nM | 0.1 to 100 nM | COc1ccc2cc(-c3cnn4ccnc(C#CC(C)(C)C(N)=O)c34)ccc2n1 [Compound P-0117, 4-[3-(2-methoxy-6-quinolyl)pyrazolo[1,5-a]pyrazin-4-yl]-2,2-dimethyl-but-3-ynamide]
10 | 0.1 to 100 nM | 0.1 to 100 nM | Cc1ccc2cc(-c3cnn4ccnc(C#CC(C)(C)C(N)=O)c34)ccc2n1 [Compound P-0118, 2,2-dimethyl-4-(3-(2-methylquinolin-6-yl)pyrazolo[1,5-a]pyrazin-4-yl)but-3-ynamide]
11 | 0.1 to 100 nM | 100 to 1000 nM | N#CC1CC=C(c2cccn3ncc(-c4ccc5cncnc5c4)c23)CC1 (stereo not shown) [Compound P-0119, 4-(3-(quinazolin-7-yl)pyrazolo[1,5-a]pyridin-4-yl)cyclohex-3-ene-1-carbonitrile]
12 | 0.1 to 100 nM | 100 to 1000 nM | N#CC1CC=C(c2cccn3ncc(-c4ccc(CN5CCOCC5)c(F)c4)c23)CC1 (stereo not shown) [Compound P-0120, 4-(3-(3-fluoro-4-(morpholinomethyl)phenyl)pyrazolo[1,5-a]pyridin-4-yl)cyclohex-3-ene-1-carbonitrile]
13 | 0.1 to 100 nM | 0.1 to 100 nM | N#CC1CC=C(c2cccn3ncc(-c4cc5ccccc5s4)c23)CC1 (stereo not shown) [Compound P-0121, 4-(3-(benzo[b]thiophen-2-yl)pyrazolo[1,5-a]pyridin-4-yl)cyclohex-3-ene-1-carbonitrile]
14 | 0.1 to 100 nM | 0.1 to 100 nM | N#CC1CC=C(c2cccn3ncc(-c4ccc5nccnc5c4)c23)CC1 (stereo not shown) [Compound P-0122, 4-(3-(quinoxalin-6-yl)pyrazolo[1,5-a]pyridin-4-yl)cyclohex-3-ene-1-carbonitrile]
15 | 0.1 to 100 nM | 0.1 to 100 nM | COC(=O)c1ccc(-c2cnn3cccc(C4=CCC(C#N)CC4)c23)cc1C (stereo not shown) [Compound P-0123, methyl 4-(4-(4-cyanocyclohex-1-en-1-yl)pyrazolo[1,5-a]pyridin-3-yl)-2-methylbenzoate]
16 | 0.1 to 100 nM | 100 to 1000 nM | N#CC1CC=C(c2cccn3ncc(-c4ccc5cccnc5c4)c23)CC1 (stereo not shown) [Compound P-0124, 4-(3-(quinolin-7-yl)pyrazolo[1,5-a]pyridin-4-yl)cyclohex-3-ene-1-carbonitrile]

Row | IC50 [1] | IC50 [2] | SMILES
17 | 0.1 to 100 nM | 0.1 to 100 nM | N#CC1CC=C(c2cccn3ncc(-c4ccc(N5CCOCC5)c(F)c4)c23)CC1 (stereo not shown) [Compound P-0125, 4-(3-(3-fluoro-4-morpholinophenyl)pyrazolo[1,5-a]pyridin-4-yl)cyclohex-3-ene-1-carbonitrile]
18 | 0.1 to 100 nM | 100 to 1000 nM | CS(=O)(=O)c1ccc(-c2cnn3cccc(C4=CCC(C#N)CC4)c23)cc1F (stereo not shown) [Compound P-0126, 4-(3-(3-fluoro-4-(methyl-sulfonyl)phenyl)pyrazolo[1,5-a]pyridin-4-yl)cyclohex-3-ene-1-carbonitrile]
19 | 0.1 to 100 nM | 0.1 to 100 nM | N#CC1CC=C(c2cccn3ncc(-c4ccc5ncccc5c4)c23)CC1 (stereo not shown) [Compound P-0127, 4-(3-(quinolin-6-yl)pyrazolo[1,5-a]pyridin-4-yl)cyclohex-3-ene-1-carbonitrile]
20 | 0.1 to 100 nM | 0.1 to 100 nM | N#CC1CC=C(c2cccn3ncc(-c4ccc(OCC(O)CN5CCCCC5)cc4)c23)CC1 (stereo not shown) [Compound P-0128, 4-(3-(4-(2-hydroxy-3-(piperidin-1-yl)propoxy)phenyl)pyrazolo[1,5-a]pyridin-4-yl)cyclohex-3-ene-1-carbonitrile]
21 | 0.1 to 100 nM | 0.1 to 100 nM | NC(=O)C1CC=C(c2nccn3ncc(-c4ccc(OCCN5CCOCC5)cc4)c23)CC1 (stereo not shown) [Compound P-0129, 4-(3-(4-(2-morpholino-ethoxy)phenyl)pyrazolo[1,5-a]pyrazin-4-yl)cyclohex-3-ene-1-carboxamide]
22 | 0.1 to 100 nM | 0.1 to 100 nM | N#CC1CC=C(c2nccn3ncc(-c4ccc(OCCCN5CCOCC5)cc4)c23)CC1 (stereo not shown) [Compound P-0130, 4-[3-[4-(3-morpholinopropoxy)phenyl]pyrazolo[1,5-a]pyrazin-4-yl]cyclohex-3-ene-1-carbonitrile]
23 | 100 to 1000 nM | 1000 to 10000 nM | Cc1ccc2cc(-c3cnc4[nH]ccc4c3C#CC(C)(C)C(N)=O)ccc2n1 [Compound P-0131, 2,2-dimethyl-4-(5-(2-methylquinolin-6-yl)-1H-pyrrolo[2,3-b]pyridin-4-yl)but-3-ynamide]
24 | 0.1 to 100 nM | 0.1 to 100 nM | CC(C)(O)Cn1cc(-c2ccc(-c3cnc4[nH]ccc4c3C3=CCC(C#N)CC3)cc2F)cn1 (stereo not shown) [Compound P-0132, 4-(5-(3-fluoro-4-(1-(2-hydroxy-2-methylpropyl)-1H-pyrazol-4-yl)phenyl)-1H-pyrrolo[2,3-b]pyridin-4-yl)cyclohex-3-ene-1-carbonitrile]
25 | 100 to 1000 nM | 100 to 1000 nM | CC(C)(O)Cn1cc(-c2ccc(-c3cnc4[nH]ccc4c3C#CC(C)(C)C(N)=O)cc2)cn1 [Compound P-0133, 4-[5-[4-[1-(2-hydroxy-2-methyl-propyl)pyrazol-4-yl]phenyl]-1H-pyrrolo[2,3-b]pyridin-4-yl]-2,2-dimethyl-but-3-ynamide]
26 | 100 to 1000 nM | 0.1 to 100 nM | CC(C)(O)Cn1cc(-c2ccc(-c3cnc4[nH]ccc4c3C3=CCC(C(N)=O)CC3)cc2F)cn1 (stereo not shown) [Compound P-0134, 4-(5-(3-fluoro-4-(1-(2-hydroxy-2-methylpropyl)-1H-pyrazol-4-yl)phenyl)-1H-pyrrolo[2,3-b]pyridin-4-yl)cyclohex-3-ene-1-carboxamide]
27 | 100 to 1000 nM | 100 to 1000 nM | O=C1NCCC12CCN(c1cccn3ncc(-c4ccc(OCCN5CCOCC5)cc4)c13)CC2 [Compound P-0135, 8-(3-(4-(2-morpholino-ethoxy)phenyl)pyrazolo[1,5-a]pyridin-4-yl)-2,8-diazaspiro[4.5]decan-1-one]
28 | 0.1 to 100 nM | 0.1 to 100 nM | Cn1ncc2cc(-c3cnn4ccnc(C5=CCC(C(N)=O)CC5)c34)ccc21 (stereo not shown) [Compound P-0136, 4-(3-(1-methyl-1H-indazol-5-yl)pyrazolo[1,5-a]pyrazin-4-yl)cyclohex-3-ene-1-carboxamide]
29 | 0.1 to 100 nM | 0.1 to 100 nM | COc1ccc(-c2cnn3cccc(C4CCC(C#N)CC4)c23)cc1 (stereo not shown) [Compound P-0137, 4-(3-(4-methoxyphenyl)pyrazolo[1,5-a]pyridin-4-yl)cyclohexane-1-carbonitrile]
30 | 0.1 to 100 nM | 0.1 to 100 nM | N#CC1CCC(c2cccn3ncc(-c4ccc(NCCN5CCOCC5)nc4)c23)CC1 (stereo not shown) [Compound P-0138, 4-(3-(6-((2-morpholinoethyl)amino)pyridin-3-yl)pyrazolo[1,5-a]pyridin-4-yl)cyclohexane-1-carbonitrile]
31 | 0.1 to 100 nM | 0.1 to 100 nM | N#CC1CCC(c2cccn3ncc(-c4ccc(F)cc4)c23)CC1 (stereo not shown) [Compound P-0139, 4-(3-(4-fluorophenyl)pyrazolo[1,5-a]pyridin-4-yl)cyclohexane-1-carbonitrile]
32 | 0.1 to 100 nM | 0.1 to 100 nM | Cc1nnc(-c2ccc(-c3cnn4cccc(C5CCC(C#N)CC5)c34)cc2)o1 (stereo not shown) [Compound P-0140, 4-(3-(4-(5-methyl-1,3,4-oxadiazol-2-yl)phenyl)pyrazolo[1,5-a]pyridin-4-yl)cyclohexane-1-carbonitrile]
